The record followed here is EP3046573B1, “AMYLIN ANALOGUES” (Zealand Pharma A/S, priority 2013, dated 2015).

Numbered stars: 1 amine (or outer) side, 2 acyl side, 3 side chain; on linkers, the order of the positions; unused ones are H or OH. Bridge positions count the residues as written; N and C are the ends. Square brackets hold non-standard residues; d marks the D form. Peptide text beside a SMILES is read from it. * marks the point of attachment. C20 diacid = O=C(O)CCCCCCCCCCCCCCCCCCC(=O)*; γGlu = O=C(O)[C@H](CCC(=O)[*:2])N[*:1]; NMeI = CC[C@H](C)[C@H](NC)C(=O)O; Sar = CNCC(=O)O

The nature of this series: Pharmacokinetic (PK) profiling in rats. Type of series: in vivo. As to conditions: male, Sprague Dawley, rat, plasma, single sc bolus, 100 nmol/kg (18, NN96), 20 nmol/kg (72, 76), 30 nmol/kg (73, 82, 118, 162, 166, 172); for CL/F: apparent clearance; for half-life: terminal elimination half-life, read-out: t½ (converted). As for the experimental part:
Sprague Dawley male rats were given a single subcutaneous (sc) bolus of each peptide to be tested at doses as specified below..
Study A: Following the administration of a 100 nmol/kg dose of a test peptide of the invention (Compound 18) and a comparison pramlintide analogue NN96 (see Example 5, above), respectively, blood samples were drawn from the tail vein at 0.5, 3, 8, 15, 36, 60 and 81 hours post-dosing. 4 rats were used (2 rats per compound). The rats were euthanized immediately after the last blood sampling by overdose of O2/CO2.
Study B: 20 nmol/kg doses of Compound 72 and Compound 76, respectively, of the invention were administered. Blood samples were drawn by sublingual bleeding prior to dosing and at 2, 6, 12, 24, 48, 72 and 96 hours after dosing. 4 rats were used (2 rats per compound). The rats were euthanized immediately after the last blood sampling by overdose of O2/CO2.
Study C: 30 nmol/kg doses of Compound 73, Compound 82 and Compound 118, respectively, of the invention were administered. Blood samples were drawn from the tail vein prior to dosing and at 24, 48, 72 and 96 hours after dosing. Blood samples were taken from two rats at each time point, and only 2 blood samples were drawn from each rat, i.e. 8 rats were used for each compound. The rats were euthanized immediately after the last blood sampling by concussion and cervical dislocation.
Study D: 30 nmol/kg doses of Compound 162, Compound 166 and Compound 172 were administered. Blood samples were drawn from the tail vein prior to dosing and at 24, 48, 72, 96 and 168 hours after dosing. Blood samples were taken from two rats at each time point, and only 2 blood samples were drawn from each rat, i.e. 10 rats were used for each compound. The rats were euthanized immediately after the last blood sampling by concussion and cervical dislocation.
The dosing vehicle used for each test peptide was a mannitol-containing histidine buffer (pH 7.0). Plasma samples were analyzed after precipitation with ethanol by liquid chromatography mass spectrometry (LC-MS/MS). Mean plasma concentrations were used for calculation of the pharmacokinetic parameters using the non-compartmental approach in Phoenix WinNonlin 6.3.
Plasma terminal elimination half-life (t½) was determined as In(2)/λz, where λz is the magnitude of the slope of the log linear regression of the log concentration versus time profile during the terminal phase. Apparent clearance (CL/F) was determined as dose/AUCinf (sc), where AUCinf is the area under the plasma concentration vs. time curve extrapolated to infinity (AUCinf = AUClast + Clast/λz, where Clast is the last observed plasma concentration).

Turning to `CC[C@H](C)[C@@H](C(=O)N[C@@H](CC(C)C)C(=O)N[C@@H](CO)C(=O)N[C@@H](CO)C(=O)N[C@H](C(=O)N[C@@H](CC(=O)O)C(=O)N[C@H](C(=O)NCC(=O)N[C@@H](CO)C(=O)N[C@@H](CC(=O)O)C(=O)N[C@H](C(=O)N1CCC[C@H]1C(N)=O)[C@@H](C)O)C(C)C)[C@@H](C)O)N(C)C(=O)[C@H](C)NC(=O)CN(C)C(=O)[C@H](Cc1ccccc1)NC(=O)[C@H](CO)NC(=O)[C@H](CO)NC(=O)[C@H](CO)NC(=O)[C@H](CO)NC(=O)[C@H](CCCNC(=N)N)NC(=O)[C@H](Cc1c[nH]cn1)NC(=O)[C@H](CC(C)C)NC(=O)[C@H](Cc1ccccc1)NC(=O)[C@H](CCC(=O)O)NC(=O)[C@H](C)NC(=O)[C@H](CC(C)C)NC(=O)[C@H](CCCNC(=N)N)NC(=O)[C@H](CCC(N)=O)NC(=O)[C@@H](NC(=O)[C@H](C)NC(=O)[C@@H]1CSSC[C@H](NC(=O)[C@H](CCCNC(=N)N)NC(=O)CC[C@H](NC(=O)CCCCCCCCCCCCCCCCCCC(=O)O)C(=O)O)C(=O)N[C@@H](CC(N)=O)C(=O)N[C@@H]([C@@H](C)O)C(=O)N[C@@H](C)C(=O)N[C@@H]([C@@H](C)O)C(=O)N1)[C@@H](C)O` [Compound 73, [19CD]-isoGlu-RC()NTATC()ATQRLAEFLHRSSSSF-Gly(Me)-A-Ile(Me)-LSSTDVGSDTP-NH2] ({C20 diacid-γGlu}-RCNTATCATQRLAEFLHRSSSSF[Sar]A[NMeI]LSSTDVGSDTP-NH2; disulfide 2-7), the CL/F (usually clearance divided by bioavailability, as obtained after extravascular dosing) was 3.06 mL/h/kg and the half-life was 55.4 h.
`CC[C@H](C)[C@@H](C(=O)N[C@@H](CC(C)C)C(=O)N[C@@H](CO)C(=O)N[C@@H](CO)C(=O)N[C@H](C(=O)N[C@@H](CCC(=O)O)C(=O)N[C@H](C(=O)NCC(=O)N[C@@H](CO)C(=O)N[C@@H](CCC(=O)O)C(=O)N[C@H](C(=O)N1CCC[C@H]1C(N)=O)[C@@H](C)O)C(C)C)[C@@H](C)O)N(C)C(=O)[C@H](C)NC(=O)CN(C)C(=O)[C@H](Cc1ccccc1)NC(=O)[C@H](CO)NC(=O)[C@H](CO)NC(=O)[C@H](CO)NC(=O)[C@H](CO)NC(=O)[C@H](CCCNC(=N)N)NC(=O)[C@H](Cc1c[nH]cn1)NC(=O)[C@H](CC(C)C)NC(=O)[C@H](Cc1ccccc1)NC(=O)[C@H](CCC(=O)O)NC(=O)[C@H](C)NC(=O)[C@H](CC(C)C)NC(=O)[C@H](CCCNC(=N)N)NC(=O)[C@H](CCC(N)=O)NC(=O)[C@@H](NC(=O)[C@H](C)NC(=O)[C@@H]1CSSC[C@H](NC(=O)[C@H](CCCNC(=N)N)NC(=O)CC[C@H](NC(=O)CCCCCCCCCCCCCCCCCCC(=O)O)C(=O)O)C(=O)N[C@@H](CC(N)=O)C(=O)N[C@@H]([C@@H](C)O)C(=O)N[C@@H](C)C(=O)N[C@@H]([C@@H](C)O)C(=O)N1)[C@@H](C)O` [Compound 76, [19CD]-isoGlu-RC()NTATC()ATQRLAEFLHRSSSSF-Gly(Me)-A-Ile(Me)-LSSTEVGSETP-NH2] ({C20 diacid-γGlu}-RCNTATCATQRLAEFLHRSSSSF[Sar]A[NMeI]LSSTEVGSETP-NH2; disulfide 2-7): the CL/F was 3.53 mL/h/kg and the half-life is 37.3 h.
For the compound `CC[C@H](C)[C@@H](C(=O)N[C@@H](CC(C)C)C(=O)N[C@@H](CO)C(=O)N[C@@H](CO)C(=O)N[C@H](C(=O)N[C@@H](CCC(=O)O)C(=O)N[C@H](C(=O)NCC(=O)N[C@@H](CO)C(=O)N[C@@H](CCC(=O)O)C(=O)N[C@H](C(=O)N1CCC[C@H]1C(N)=O)[C@@H](C)O)C(C)C)[C@@H](C)O)N(C)C(=O)[C@H](C)NC(=O)CN(C)C(=O)[C@H](Cc1ccccc1)NC(=O)[C@H](CO)NC(=O)[C@H](CO)NC(=O)[C@H](CCCNC(=N)N)NC(=O)[C@H](Cc1c[nH]cn1)NC(=O)[C@H](CC(C)C)NC(=O)[C@H](Cc1ccccc1)NC(=O)[C@H](CCC(=O)O)NC(=O)[C@H](C)NC(=O)[C@H](CC(C)C)NC(=O)[C@H](CCCNC(=N)N)NC(=O)[C@H](CCC(N)=O)NC(=O)[C@@H](NC(=O)[C@H](C)NC(=O)[C@@H]1CSSC[C@H](NC(=O)[C@H](CCCNC(=N)N)NC(=O)CC[C@H](NC(=O)CCCCCCCCCCCCCCCCCCC(=O)O)C(=O)O)C(=O)N[C@@H](CC(N)=O)C(=O)N[C@@H]([C@@H](C)O)C(=O)N[C@@H](C)C(=O)N[C@@H]([C@@H](C)O)C(=O)N1)[C@@H](C)O` [Compound 82, [19CD]-isoGlu-RC()NTATC()ATQRLAEFLHRSSF-Gly(Me)-A-Ile(Me)-LSSTEVGSETP-NH2] ({C20 diacid-γGlu}-RCNTATCATQRLAEFLHRSSF[Sar]A[NMeI]LSSTEVGSETP-NH2; disulfide 2-7), the CL/F was 4.01 mL/h/kg and the half-life is 44.2 h.
The like results for `CC[C@H](C)[C@@H](C(=O)N[C@@H](CC(C)C)C(=O)N[C@@H](CO)C(=O)N[C@@H](CO)C(=O)N[C@H](C(=O)N[C@@H](CCC(=O)O)C(=O)N[C@H](C(=O)NCC(=O)N[C@@H](CO)C(=O)N[C@@H](CCC(=O)O)C(=O)N[C@H](C(=O)N1CCC[C@H]1C(N)=O)[C@@H](C)O)C(C)C)[C@@H](C)O)N(C)C(=O)[C@H](C)NC(=O)CN(C)C(=O)[C@H](Cc1ccccc1)NC(=O)[C@H](CO)NC(=O)[C@H](CO)NC(=O)[C@H](CO)NC(=O)[C@H](CO)NC(=O)[C@H](CCCNC(=N)N)NC(=O)[C@H](Cc1c[nH]cn1)NC(=O)[C@H](CC(C)C)NC(=O)[C@H](Cc1ccccc1)NC(=O)[C@H](CCC(=O)O)NC(=O)[C@H](C)NC(=O)[C@H](CC(C)C)NC(=O)[C@H](CCCNC(=N)N)NC(=O)[C@H](C)NC(=O)[C@@H](NC(=O)[C@H](C)NC(=O)[C@@H]1CSSC[C@H](NC(=O)[C@H](CCCNC(=N)N)NC(=O)CC[C@H](NC(=O)CCCCCCCCCCCCCCCCCCC(=O)O)C(=O)O)C(=O)N[C@@H](CC(N)=O)C(=O)N[C@@H]([C@@H](C)O)C(=O)N[C@@H](C)C(=O)N[C@@H]([C@@H](C)O)C(=O)N1)[C@@H](C)O` [Compound 118, [19CD]-isoGlu-RC()NTATC()ATARLAEFLHRSSSSF-Gly(Me)-A-Ile(Me)-LSSTEVGSETP-NH2] ({C20 diacid-γGlu}-RCNTATCATARLAEFLHRSSSSF[Sar]A[NMeI]LSSTEVGSETP-NH2; disulfide 2-7) were, in that order, 3.51 mL/h/kg and 56.4 h.
Turning to `CC[C@H](C)[C@@H](C(=O)N[C@@H](CC(C)C)C(=O)N[C@@H](CO)C(=O)N[C@@H](CO)C(=O)N[C@H](C(=O)N[C@@H](CCC(=O)O)C(=O)N[C@H](C(=O)NCC(=O)N[C@@H](CO)C(=O)N[C@@H](CCC(=O)O)C(=O)N[C@H](C(=O)N1CCC[C@H]1C(N)=O)[C@@H](C)O)C(C)C)[C@@H](C)O)N(C)C(=O)[C@H](C)NC(=O)CN(C)C(=O)[C@H](Cc1ccccc1)NC(=O)[C@H](CO)NC(=O)[C@H](CO)NC(=O)[C@H](CCCNC(=N)N)NC(=O)[C@H](Cc1c[nH]cn1)NC(=O)[C@H](CC(C)C)NC(=O)[C@H](Cc1ccccc1)NC(=O)[C@H](CCC(=O)O)NC(=O)[C@H](C)NC(=O)[C@H](CC(C)C)NC(=O)[C@H](CCCNC(=N)N)NC(=O)[C@H](CCC(=O)O)NC(=O)[C@@H](NC(=O)[C@H](C)NC(=O)[C@@H]1CSSC[C@H](NC(=O)[C@H](CCCNC(=N)N)NC(=O)CC[C@H](NC(=O)CCCCCCCCCCCCCCCCCCC(=O)O)C(=O)O)C(=O)NCC(=O)N[C@@H]([C@@H](C)O)C(=O)N[C@@H](C)C(=O)N[C@@H]([C@@H](C)O)C(=O)N1)[C@@H](C)O` [Compound 162, [19CD]-isoGlu-RC()GTATC()ATERLAEFLHRSSF-Gly(Me)-A-Ile(Me)-LSSTEVGSETP-NH2] ({C20 diacid-γGlu}-RCGTATCATERLAEFLHRSSF[Sar]A[NMeI]LSSTEVGSETP-NH2; disulfide 2-7), the CL/F was 5.92 mL/h/kg and the half-life is 29.8 h.
